Reference: PMC2725291, “Genetic and Molecular Basis of Individual Differences in Human Umami Taste Perception” (PLoS ONE, 2009)
Where a name gives a salt, the structure may show the parent alone.

Columns and labels:
254 Japanese subjects = experiment: Taste recognition threshold measurement (staircase method); assay type: in vivo, human; details: other basic taste stimuli, Figure S1
Excerpt: A total of 254 healthy, non-obese, non-diabetic Japanese volunteers [male/female: 141/113, age: 20–36, body mass index (BMI); 16.5–24.8] participated in this study. The purpose of the study as well as the methods and procedure were explained to the participants and the patients in this manuscript have given written informed consent. All protocols were approved by the local ethics committee at Kyushu University. Subjects were asked to refrain from consuming alcohol the day before testing, caffeine on the day of testing, and food during the experimentation period. The inclusion criteria were satisfactory state of oral hygiene, non-smoking, regular work, sleep, and meal schedules.
As MSG contains sodium, great care was taken to compare individual sensitivities to MSG relative to NaCl. […] The differences in concentrations in the present study were in 0.3 log steps, which mean step-wise increases in concentration by a factor of 2.0. All solutions were made up in distilled water and used at room temperature. The testing procedure was the staircase-method modified from Pasquet et al.. Each subject evaluated all 7 tastants. The seven series of solutions were presented one after another within a single section. Within each series, the solutions with each 2.0 ml were applied to the whole tongue of each subject with a pipet in order of ascending concentrations. The subjects were asked not to swallow test solutions and rinse their mouth between two solutions with distilled water. The subject was requested to correctly name the taste quality in each series. Once the taste of two successive concentrations was recognized successfully, the subject was given the previous unrecognized concentration (first reversal). The points at which concentration sequence changed from a decrease to an increase or vice versa were designated “reversals”. The procedure was terminated after five reversals, and the threshold was calculated as the mean of the concentration values of the last four reversals.
Student's t-test was used for detection of differences in the mean recognition thresholds between males and females. The χ^2 test was used for checking Hardy-Weinberg Equilibrium (HWE) for the genotype frequencies in samples to control genotyping errors, for detection of differences in genotype and allele frequencies between high and low taste recognition threshold groups. Yates'χ^2 test was used when the number was less than 10. The mean values (the center±S.E. of gaussian curve on X-axis) in the distribution of recognition thresholds defined by TAS1R1/TAS1R3 haplotypes (TAS1R1-372A/TAS1R3-757R homozygotes, TAS1R1-372T/TAS1R3-757R homozygotes, homo- and heterozygotes containing TAS1R3-757C) were calculated using gauss fit function of Origin 5.0 (OriginLab Corp). For Ca^2+ imaging analysis, data were normalized to response to 10 µM ISO, and mean values (±S.E.) were calculated from 10∼18 independent analyses. EC50 values were calculated from individual cumulative concentration-response data using sigmoid fit functions of Origin 5.0. One factor ANOVAs were conducted for detection of differences in the distributions of recognition thresholds for umami substances among 3 groups defined by TAS1R1/TAS1R3 haplotypes, and in the responses to 5, 20 and 50 mM MSG or 0.3, 5 and 50 mM M+I among TAS1R1/TAS1R3 variants in Ca^2+ imaging analysis. When the ANOVA was significant, post-hoc Student's t-test or Fisher's PLSD test was performed to compare individual means at each umami compound or concentration. Significance level was 0.05.

[1] = target: T1, TAS1R1-372A and TAS1R3-757R (Homo sapiens, UniProt Q7RTX0+Q7RTX1, C757R); experiment: Ca2+ imaging (bath perfusion) in HEK cells transfected with TAS1R1-372A, TAS1R3-757R and Gα16-i3; assay type: cell-based
T1 construct: expressed in transfected cells; host or cells: HEK293
T1 sequence (Q7RTX1 21-841): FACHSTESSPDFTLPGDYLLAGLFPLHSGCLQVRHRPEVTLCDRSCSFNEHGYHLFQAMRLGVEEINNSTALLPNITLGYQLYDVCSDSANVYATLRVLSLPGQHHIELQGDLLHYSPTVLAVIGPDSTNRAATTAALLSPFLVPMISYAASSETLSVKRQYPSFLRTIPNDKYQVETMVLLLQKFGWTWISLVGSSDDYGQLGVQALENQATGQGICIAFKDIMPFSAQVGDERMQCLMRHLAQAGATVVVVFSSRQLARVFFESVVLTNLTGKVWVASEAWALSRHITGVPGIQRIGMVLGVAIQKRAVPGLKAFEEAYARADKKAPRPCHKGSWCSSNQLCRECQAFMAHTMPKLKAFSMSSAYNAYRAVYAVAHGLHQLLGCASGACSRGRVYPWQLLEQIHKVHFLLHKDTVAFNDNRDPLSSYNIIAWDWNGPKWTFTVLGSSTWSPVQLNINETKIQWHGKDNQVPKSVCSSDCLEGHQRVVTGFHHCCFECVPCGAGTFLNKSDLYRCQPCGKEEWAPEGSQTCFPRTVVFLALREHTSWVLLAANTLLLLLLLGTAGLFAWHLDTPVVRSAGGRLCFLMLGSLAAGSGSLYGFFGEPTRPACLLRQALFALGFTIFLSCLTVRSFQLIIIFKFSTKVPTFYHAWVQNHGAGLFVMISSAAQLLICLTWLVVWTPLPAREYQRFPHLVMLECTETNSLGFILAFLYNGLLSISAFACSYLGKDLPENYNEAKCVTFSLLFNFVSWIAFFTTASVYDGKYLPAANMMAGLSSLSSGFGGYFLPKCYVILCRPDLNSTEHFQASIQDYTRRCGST
T1 sequence (Q7RTX0 21-852 C757R): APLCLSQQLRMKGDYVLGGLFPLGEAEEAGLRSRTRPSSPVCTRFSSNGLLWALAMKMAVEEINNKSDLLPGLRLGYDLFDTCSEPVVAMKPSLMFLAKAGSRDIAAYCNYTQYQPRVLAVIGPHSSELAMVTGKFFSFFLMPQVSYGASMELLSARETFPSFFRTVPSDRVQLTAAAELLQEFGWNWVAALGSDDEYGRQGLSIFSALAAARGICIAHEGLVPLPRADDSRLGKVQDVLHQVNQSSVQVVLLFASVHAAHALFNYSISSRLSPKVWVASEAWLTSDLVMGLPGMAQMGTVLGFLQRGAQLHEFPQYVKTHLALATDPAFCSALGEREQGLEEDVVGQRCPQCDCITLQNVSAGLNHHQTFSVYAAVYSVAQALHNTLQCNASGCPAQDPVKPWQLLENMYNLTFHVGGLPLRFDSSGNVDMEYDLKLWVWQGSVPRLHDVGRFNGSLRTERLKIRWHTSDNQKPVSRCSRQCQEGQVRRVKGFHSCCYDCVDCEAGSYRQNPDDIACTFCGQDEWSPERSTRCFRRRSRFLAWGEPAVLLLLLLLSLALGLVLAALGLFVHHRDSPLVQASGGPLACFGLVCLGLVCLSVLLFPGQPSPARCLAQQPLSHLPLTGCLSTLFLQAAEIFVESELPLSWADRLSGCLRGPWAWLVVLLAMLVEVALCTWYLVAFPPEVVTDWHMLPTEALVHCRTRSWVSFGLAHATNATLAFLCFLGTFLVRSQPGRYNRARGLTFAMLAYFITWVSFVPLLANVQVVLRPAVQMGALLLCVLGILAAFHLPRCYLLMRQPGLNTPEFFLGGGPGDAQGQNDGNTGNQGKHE
Procedure: HEK293 cells were cultured at 37°C under a humidified atmosphere containing 5% CO2 in Dulbecco's modified Eagle's medium supplemented with 10% fetal bovine serum. To obtain reproducible Ca^2+ responses, cells were split every 2 days before cells become confluent. Cells were discarded after 2 months of passages and new cells were prepared from frozen-stock. For calcium imaging experiments, cells were seeded onto a 35 mm recording chamber or poly-D-lysine coated 96-well black-wall, clear-bottom recording plates. After 24 hrs at 37°C, confluent cells (60∼70%) were washed in OptiMEM medium supplemented with GlutaMAX-I (invitrogen) and plasmid DNAs were transiently cotransfected into HEK293 cells using Lipofectamine2000 regent (invitrogen) (2.0 µl per 1.0 µg DNA). TAS1Rs (or their mutants) and Gαl6-i3 were transfected using 1.5 and 1.0 µg of plasmid for 35 mm recording chambers, 0.09 and 0.06 µg of plasmid per well for 96-well plates, respectively. […] Immuno staining and Ca^2+ imaging assays were performed 36∼40 hrs after transfection.
Two Ca^2+ imaging systems were used. A bath perfusion system was used for kinetics of activation. Transfected cells in 35 mm recording chambers were washed in Hank's balanced salt solution (HBSS) containing 10 mM HEPES, pH 7.4, and loaded with 3.0 µM Fluo-4 acetoxymethyl ester (invitrogen) for 1.0 hr at 37°C. The dye-loaded cells were subjected to Ca^2+ imaging. Taste solutions diluted in HBSS were applied sequentially to the cells for 30 s with a peristaltic pump at a flow rate of 1.5 ml/min, and fluorescence images were obtained using a S Fluor ×20/0.75 objective lens (Nikon) via a cooled-CCD camera (C6790, Hamamatsu Photonics) fitted to a TE300 microscope (Nikon). Acquisition and analysis of these fluorescence images used AquaCosmos software (v. 1.3, Hamamatsu Photonics). A 3 min interval was left between each tastant application to ensure that the cells were not desensitized as a result of the previous application of tastants. Responses were measured from 30 individual responding cells. […] Isoproterenol (ISO, 10 µM) was used as positive control, which stimulates endogenous β-adrenergic receptors, providing that the Gα16-dependent signal transduction cascade was functional.

TAS1R1/TAS1R3 variants = experiment: Ca2+ imaging (FlexStation II), comparison across receptor variants (AR, TR, AC, TC); assay type: cell-based, human; details: lactisole 5 mM; 20 mM MSG+0.5 mM IMP; Figure S5
Excerpt: Intronless human TAS1Rs and Gαl6 expression constructs were generated in the pEF-DEST51 Gateway vector (Invitrogen) by genomic DNA-based methods. To subclone each gene into the vector, a Kozak cassette was introduced at the 5′ end before the start codon. Gαl6 chimeras were generated by PCR with mutagenic primers. The carboxyl-terminal tail of Gαl6, five-residue (EINLL) was replaced by its counterpart from Gαi3 (ECGLY; Gα16-i3), Gαgust (DCGLF; Gα16-gust), and Gα16-gust44 was generated as described. The integrity of all DNA constructs was confirmed by DNA sequencing. Point mutations in TAS1Rs were made using the same overlapping PCR strategy with mutagenic primers.
HEK293 cells were cultured at 37°C under a humidified atmosphere containing 5% CO2 in Dulbecco's modified Eagle's medium supplemented with 10% fetal bovine serum. To obtain reproducible Ca^2+ responses, cells were split every 2 days before cells become confluent. Cells were discarded after 2 months of passages and new cells were prepared from frozen-stock. For calcium imaging experiments, cells were seeded onto a 35 mm recording chamber or poly-D-lysine coated 96-well black-wall, clear-bottom recording plates. After 24 hrs at 37°C, confluent cells (60∼70%) were washed in OptiMEM medium supplemented with GlutaMAX-I (invitrogen) and plasmid DNAs were transiently cotransfected into HEK293 cells using Lipofectamine2000 regent (invitrogen) (2.0 µl per 1.0 µg DNA). […]
Student's t-test was used for detection of differences in the mean recognition thresholds between males and females. […] The mean values (the center±S.E. of gaussian curve on X-axis) in the distribution of recognition thresholds defined by TAS1R1/TAS1R3 haplotypes (TAS1R1-372A/TAS1R3-757R homozygotes, TAS1R1-372T/TAS1R3-757R homozygotes, homo- and heterozygotes containing TAS1R3-757C) were calculated using gauss fit function of Origin 5.0 (OriginLab Corp). For Ca^2+ imaging analysis, data were normalized to response to 10 µM ISO, and mean values (±S.E.) were calculated from 10∼18 independent analyses.

SMILES | differences in distributions of recognition thresholds among TR, AR and TAS1R3-757C groups (254 Japanese subjects) | Ca2+ response of transfected HEK cells ([1]; 50 mM) | other results
Cl [HCl] | no such differences |  | 
[Cl-].[Na+] [NaCl] | no such differences | did not respond | 
NC(=S)Nc1ccccc1 [PTC, phenylthiocarbamide] | no such differences |  | 
C[C@H](NC(=NCC(=O)O)Nc1ccc(C#N)cc1)c1ccccc1 [SC45647] |  |  | Ca2+ response of transfected HEK cells ([1]; 0.3 mM (data not shown)): did not respond
OC[C@H]1OC(O)[C@H](O)[C@@H](O)[C@@H]1O (stereo partly shown) [glucose] |  | did not respond | 
COc1ccc(OC(C)C(=O)O)cc1 (stereo not shown) [lactisole] |  |  | inhibition effect on the responses of TAS1R1/TAS1R3 variants (TAS1R1/TAS1R3 variants): clearly observed
O=C1NS(=O)(=O)c2ccccc21 [saccharin] |  |  | Ca2+ response of transfected HEK cells ([1]; 1 mM (data not shown)): did not respond
OC[C@H]1O[C@@](CO)(O[C@H]2O[C@H](CO)[C@@H](O)[C@H](O)[C@H]2O)[C@@H](O)[C@@H]1O [sucrose] | no such differences | did not respond | 
